Data from PubChem BioAssay (NCI).
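A five-concentration, 48-hour dose response in 96-well plates underlies each endpoint, interpolated linearly between surrounding concentrations. At the GI50, growth is halved. TGI: concentration producing complete growth inhibition.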

Key:
Test in all cases: growth of human tumour cells (NCI), 48 h
786-0 renal = tested on: 786-0 renal
A498 renal = tested on: A498 renal
BT-549 breast = tested on: BT-549 breast
CAKI-1 renal = tested on: CAKI-1 renal
CCRF-CEM leukemia = tested on: CCRF-CEM leukemia
COLO 205 colon = tested on: COLO 205 colon
DU-145 prostate = tested on: DU-145 prostate
EKVX NSCLC = tested on: EKVX NSCLC
HCC-2998 colon = tested on: HCC-2998 colon
HCT-116 colon = tested on: HCT-116 colon
HCT-15 colon = tested on: HCT-15 colon
HL-60(TB) leukemia = tested on: HL-60(TB) leukemia
HOP-62 NSCLC = tested on: HOP-62 NSCLC
HOP-92 NSCLC = tested on: HOP-92 NSCLC
HS 578T breast = tested on: HS 578T breast
HT29 colon = tested on: HT29 colon
IGROV1 ovarian = tested on: IGROV1 ovarian
K-562 leukemia = tested on: K-562 leukemia
KM12 colon = tested on: KM12 colon
LOX IMVI melanoma = tested on: LOX IMVI melanoma
M14 melanoma = tested on: M14 melanoma
MALME-3M melanoma = tested on: MALME-3M melanoma
MCF7 breast = tested on: MCF7 breast
MDA-MB-231 breast = tested on: MDA-MB-231 breast
MDA-MB-435 = tested on: MDA-MB-435
MDA-MB-468 breast = tested on: MDA-MB-468 breast
MOLT-4 leukemia = tested on: MOLT-4 leukemia
NCI-H226 lung = tested on: NCI-H226 lung
NCI-H23 lung = tested on: NCI-H23 lung
NCI-H522 lung = tested on: NCI-H522 lung
OVCAR-3 ovarian = tested on: OVCAR-3 ovarian
OVCAR-4 ovarian = tested on: OVCAR-4 ovarian
OVCAR-5 ovarian = tested on: OVCAR-5 ovarian
OVCAR-8 ovarian = tested on: OVCAR-8 ovarian
PC-3 prostate = tested on: PC-3 prostate
RPMI-8226 leukemia = tested on: RPMI-8226 leukemia
RXF 393 renal = tested on: RXF 393 renal
SF-268 CNS = tested on: SF-268 CNS
SF-295 CNS = tested on: SF-295 CNS
SF-539 CNS = tested on: SF-539 CNS
SK-MEL-2 melanoma = tested on: SK-MEL-2 melanoma
SK-MEL-28 melanoma = tested on: SK-MEL-28 melanoma
SK-MEL-5 melanoma = tested on: SK-MEL-5 melanoma
SK-OV-3 ovarian = tested on: SK-OV-3 ovarian
SN12C renal = tested on: SN12C renal
SNB-19 CNS = tested on: SNB-19 CNS
SNB-75 CNS = tested on: SNB-75 CNS
SR leukemia = tested on: SR leukemia
T-47D breast = tested on: T-47D breast
TK-10 renal = tested on: TK-10 renal
U251 CNS = tested on: U251 CNS
UACC-257 melanoma = tested on: UACC-257 melanoma
UACC-62 melanoma = tested on: UACC-62 melanoma
UO-31 renal = tested on: UO-31 renal

Work on `CN1CCN(C(=O)CCN(C(=O)Oc2cc3c(c4ccccc24)[C@H](CCl)CN3C(=O)c2cc3cc(OCCCN4CCC4)ccc3[nH]2)[C@H]2CCSSC2)CC1` yielded a GI50 (786-0 renal) of 330 nM, a TGI (786-0 renal) of 1140 nM and a GI50 (A498 renal) of 199 nM. For the same compound, the TGI (A498 renal) was 386 nM, the GI50 (BT-549 breast) was 1020 nM and the TGI (BT-549 breast) was 2460 nM. It also gave a GI50 (CAKI-1 renal) of 150 nM, a TGI (CAKI-1 renal) of 509 nM and a GI50 (CCRF-CEM leukemia) of 269 nM. It also gave a TGI (CCRF-CEM leukemia) of 3510 nM, a GI50 (COLO 205 colon) of 431 nM and a TGI (COLO 205 colon) of 2260 nM. It also gave a GI50 (DU-145 prostate) of 165 nM, a TGI (DU-145 prostate) of 1250 nM and a GI50 (EKVX NSCLC) of 351 nM. The TGI (EKVX NSCLC) was 1550 nM, the GI50 (HCC-2998 colon) was 146 nM and the TGI (HCC-2998 colon) was 334 nM. For the same compound, the GI50 (HCT-116 colon) was 234 nM, the TGI (HCT-116 colon) was 1040 nM and the GI50 (HCT-15 colon) was 209 nM. It also gave a TGI (HCT-15 colon) of 1350 nM, a GI50 (HL-60(TB) leukemia) of 390 nM and a TGI (HL-60(TB) leukemia) of 2030 nM. The GI50 (HOP-62 NSCLC) was 146 nM, the TGI (HOP-62 NSCLC) was 678 nM and the GI50 (HOP-92 NSCLC) was 997 nM. The TGI (HOP-92 NSCLC) was 3640 nM, the GI50 (HS 578T breast) was 1230 nM and the TGI (HS 578T breast) was 3170 nM. The GI50 (HT29 colon) was 211 nM, the TGI (HT29 colon) was 963 nM and the GI50 (IGROV1 ovarian) was 545 nM. For the same compound, the TGI (IGROV1 ovarian) was 2450 nM, the GI50 (K-562 leukemia) was 225 nM and the TGI (K-562 leukemia) was 1590 nM. For the same compound, the GI50 (KM12 colon) was 308 nM, the TGI (KM12 colon) was 1510 nM and the GI50 (LOX IMVI melanoma) was 85.5 nM. For the same compound, the TGI (LOX IMVI melanoma) was 314 nM, the GI50 (M14 melanoma) was 195 nM and the TGI (M14 melanoma) was 653 nM. It also gave a GI50 (MALME-3M melanoma) of 232 nM, a TGI (MALME-3M melanoma) of 745 nM and a GI50 (MCF7 breast) of 49.5 nM. For the same compound, the TGI (MCF7 breast) was 1430 nM, the GI50 (MDA-MB-231 breast) was 402 nM and the TGI (MDA-MB-231 breast) was 1450 nM. For the same compound, the GI50 (MDA-MB-435) was 285 nM, the TGI (MDA-MB-435) was 1170 nM and the GI50 (MDA-MB-468 breast) was 148 nM. The TGI (MDA-MB-468 breast) was 442 nM, the GI50 (MOLT-4 leukemia) was 231 nM and the TGI (MOLT-4 leukemia) was 1580 nM. The GI50 (NCI-H226 lung) was 148 nM, the TGI (NCI-H226 lung) was 1160 nM and the GI50 (NCI-H23 lung) was 65.7 nM. The TGI (NCI-H23 lung) was 211 nM, the GI50 (NCI-H522 lung) was 254 nM and the TGI (NCI-H522 lung) was 1280 nM. The GI50 (OVCAR-3 ovarian) was 426 nM, the TGI (OVCAR-3 ovarian) was 1880 nM and the GI50 (OVCAR-4 ovarian) was 1360 nM. The TGI (OVCAR-4 ovarian) was 2780 nM, the GI50 (OVCAR-5 ovarian) was 390 nM and the TGI (OVCAR-5 ovarian) was 1390 nM. The GI50 (OVCAR-8 ovarian) was 136 nM, the TGI (OVCAR-8 ovarian) was 500 nM and the GI50 (PC-3 prostate) was 378 nM. The TGI (PC-3 prostate) was 2070 nM, the GI50 (RPMI-8226 leukemia) was 570 nM and the TGI (RPMI-8226 leukemia) was 3870 nM. For the same compound, the GI50 (RXF 393 renal) was 189 nM, the TGI (RXF 393 renal) was 454 nM and the GI50 (SF-268 CNS) was 281 nM. For the same compound, the TGI (SF-268 CNS) was 1630 nM, the GI50 (SF-295 CNS) was 107 nM and the TGI (SF-295 CNS) was 291 nM. It also gave a GI50 (SF-539 CNS) of 325 nM, a TGI (SF-539 CNS) of 1200 nM and a GI50 (SK-MEL-2 melanoma) of 345 nM. For the same compound, the TGI (SK-MEL-2 melanoma) was 1060 nM, the GI50 (SK-MEL-28 melanoma) was 208 nM and the TGI (SK-MEL-28 melanoma) was 502 nM. For the same compound, the GI50 (SK-MEL-5 melanoma) was 152 nM, the TGI (SK-MEL-5 melanoma) was 336 nM and the GI50 (SK-OV-3 ovarian) was 313 nM. It also gave a TGI (SK-OV-3 ovarian) of 7080 nM, a GI50 (SN12C renal) of 527 nM and a TGI (SN12C renal) of 9020 nM. The GI50 (SNB-19 CNS) was 272 nM, the TGI (SNB-19 CNS) was 1650 nM and the GI50 (SNB-75 CNS) was 497 nM. It also gave a TGI (SNB-75 CNS) of 2320 nM, a GI50 (SR leukemia) of 66.1 nM and a TGI (SR leukemia) of 906 nM. It also gave a GI50 (T-47D breast) of 570 nM, a TGI (T-47D breast) of 2400 nM and a GI50 (TK-10 renal) of 1560 nM. For the same compound, the TGI (TK-10 renal) was 3570 nM, the GI50 (U251 CNS) was 100 nM and the TGI (U251 CNS) was 377 nM. For the same compound, the GI50 (UACC-257 melanoma) was 378 nM, the TGI (UACC-257 melanoma) was 1810 nM and the GI50 (UACC-62 melanoma) was 115 nM. For the same compound, the TGI (UACC-62 melanoma) was 294 nM, the GI50 (UO-31 renal) was 190 nM and the TGI (UO-31 renal) was 480 nM.
